Laboratory results from patent publication US10669272B2, “Substituted naphthyridinone compounds useful as T cell activators” (BRISTOL-MYERS SQUIBB COMPANY, priority 2018, dated 2020).
Like-named read-outs stand apart in the source and are kept apart here.

What was measured:
[1] = target: T1, human DGKα (Homo sapiens, UniProt P23743); assay: DGKα LIPGLO assay (extruded liposome substrate), in vitro DGK inhibition; assay type: biochemical; conditions: read-out: DGKa LIPGLO IC50
T1 construct: TVMV protease cleavage site (C); Hexa-His (C); made in house; host or cells: Sf9 insect cells (baculovirus, Bac-to-Bac)

[2] = target: T2, human DGKζ (Homo sapiens, UniProt Q13574); assay: DGKζ LIPGLO assay (extruded liposome substrate), in vitro DGK inhibition; assay type: biochemical; conditions: read-out: DGKz LIPGLO IC50
T2 construct: TVMV protease cleavage site (C); Hexa-His (C); made in house; host or cells: Sf9 insect cells (baculovirus, Bac-to-Bac)

[3] = test system: Human venous whole blood; assay: Human whole blood IFN-γ assay; assay type: cell-based; conditions: human whole blood, read-out: INFg Whole Blood Normalized Agonist EC50;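 also: blood from healthy donors exposed to compound for 1 h before stimulation with anti-CD3 and anti-CD28 at 1 µg/mL each, IFN-γ quantified in supernatant by AlphaLISA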
[4] = normalized to 3 μM reference compound with anti-CD3 plus anti-CD28 as 100% activation
[5] = Homo sapiens, 24 h, normalized to 3 μM reference compound with anti-CD3 plus anti-CD28 as 100% activation

T2 sequence (Q13574 with tags, fused parts or gaps isoform Q13574-4): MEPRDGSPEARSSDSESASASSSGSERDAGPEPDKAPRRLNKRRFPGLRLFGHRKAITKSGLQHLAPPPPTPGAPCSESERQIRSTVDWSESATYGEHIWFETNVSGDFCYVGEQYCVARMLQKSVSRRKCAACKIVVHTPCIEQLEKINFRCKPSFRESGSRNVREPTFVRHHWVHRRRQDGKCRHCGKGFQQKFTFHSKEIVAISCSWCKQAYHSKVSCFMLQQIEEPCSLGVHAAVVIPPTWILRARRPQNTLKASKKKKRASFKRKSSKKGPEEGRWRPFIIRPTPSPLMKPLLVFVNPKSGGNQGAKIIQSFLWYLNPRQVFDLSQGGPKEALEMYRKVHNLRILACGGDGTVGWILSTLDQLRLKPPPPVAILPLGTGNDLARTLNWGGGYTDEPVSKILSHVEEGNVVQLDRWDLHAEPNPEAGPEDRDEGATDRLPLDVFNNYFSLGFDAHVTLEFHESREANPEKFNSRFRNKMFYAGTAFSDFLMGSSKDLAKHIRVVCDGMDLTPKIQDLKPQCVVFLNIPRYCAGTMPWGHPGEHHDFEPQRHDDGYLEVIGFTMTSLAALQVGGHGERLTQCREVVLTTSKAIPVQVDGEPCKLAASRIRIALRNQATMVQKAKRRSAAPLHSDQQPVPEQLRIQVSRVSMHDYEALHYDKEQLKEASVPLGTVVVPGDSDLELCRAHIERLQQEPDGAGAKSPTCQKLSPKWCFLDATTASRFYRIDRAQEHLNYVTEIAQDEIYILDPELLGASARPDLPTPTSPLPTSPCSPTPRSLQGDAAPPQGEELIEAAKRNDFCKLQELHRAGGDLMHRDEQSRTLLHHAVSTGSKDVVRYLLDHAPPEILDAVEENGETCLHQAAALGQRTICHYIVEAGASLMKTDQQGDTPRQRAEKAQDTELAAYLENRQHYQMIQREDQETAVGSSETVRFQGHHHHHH
T1 sequence (P23743 with tags, fused parts or gaps): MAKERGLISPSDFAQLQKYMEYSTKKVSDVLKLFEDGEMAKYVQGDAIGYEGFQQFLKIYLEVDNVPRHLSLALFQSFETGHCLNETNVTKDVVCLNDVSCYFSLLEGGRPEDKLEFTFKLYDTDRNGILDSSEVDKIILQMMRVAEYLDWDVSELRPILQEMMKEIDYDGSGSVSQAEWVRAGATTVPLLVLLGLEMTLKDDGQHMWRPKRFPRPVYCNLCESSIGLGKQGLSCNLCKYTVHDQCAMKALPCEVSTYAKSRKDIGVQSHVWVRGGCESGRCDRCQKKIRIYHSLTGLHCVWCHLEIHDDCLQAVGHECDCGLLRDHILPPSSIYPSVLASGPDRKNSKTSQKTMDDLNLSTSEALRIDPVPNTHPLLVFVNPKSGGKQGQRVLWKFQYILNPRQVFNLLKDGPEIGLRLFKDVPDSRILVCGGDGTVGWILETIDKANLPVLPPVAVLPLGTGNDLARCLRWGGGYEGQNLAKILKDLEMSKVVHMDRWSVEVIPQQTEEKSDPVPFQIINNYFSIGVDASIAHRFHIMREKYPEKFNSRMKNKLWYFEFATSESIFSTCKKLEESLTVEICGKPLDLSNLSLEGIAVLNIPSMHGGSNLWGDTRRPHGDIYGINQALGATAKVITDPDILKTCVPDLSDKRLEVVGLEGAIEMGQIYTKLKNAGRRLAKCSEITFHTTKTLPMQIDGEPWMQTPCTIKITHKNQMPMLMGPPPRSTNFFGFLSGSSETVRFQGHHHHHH

| IC50 ([1]; liposome (LIPGLO) assay) | IC50 ([2]; liposome (LIPGLO) assay) | IC50 ([1]; DGKα liposome (LIPGLO) assay) | IC50 ([2]; DGKζ liposome (LIPGLO) assay) | Compound | EC50 [3, 4] | EC50 [3, 5] | EC50 ([3]; Homo sapiens, 24 h, anti-CD3 plus anti-CD28, 24 hours, 3 μM reference compound = 100% activation) | EC50 ([3]; anti-CD3 plus anti-CD28, 24 hours, 3 μM reference compound = 100% activation) |
| --- | --- | --- | --- | --- | --- | --- | --- | --- |
| 2500 nM | 11 nM |  |  | CC(c1ccc2nccnc2c1)N1C[C@H](C)N(c2cc(=O)n(C)c3ccc(C#N)nc23)C[C@H]1C (single isomer, unassigned) [Example 650] | 290 nM |  |  |  |
| 50000 nM | 950 nM |  |  | CC(c1ccc2nccnc2c1)N1C[C@H](C)N(c2cc(=O)n(C)c3ccc(C#N)nc23)C[C@H]1C (single isomer, unassigned) [Example 651] | 20000 nM |  |  |  |
| 2000 nM | 130 nM |  |  | CC(c1ccc2c(c1)OC(F)(F)O2)N1C[C@H](C)N(c2cc(=O)n(C)c3ccc(C#N)nc23)C[C@H]1C (single isomer, unassigned) [Example 654] | 400 nM |  |  |  |
| 4200 nM | 1300 nM |  |  | CC(c1ccc2c(c1)OC(F)(F)O2)N1C[C@H](C)N(c2cc(=O)n(C)c3ccc(C#N)nc23)C[C@H]1C (single isomer, unassigned) [Example 655] | 6600 nM |  |  |  |
| 4100 nM | 1700 nM |  |  | COc1cccc(C(c2ccc(F)cc2)N2C[C@H](C)N(c3cc(=O)n(C)c4ccc(C#N)nc34)C[C@H]2C)c1 (single isomer, unassigned) [Example 661] | 1000 nM |  |  |  |
| 1300 nM | 2900 nM |  |  | C[C@@H]1CN(c2cc(=O)n(C)c3ccc(C#N)nc23)[C@@H](C)CN1C(c1ccc(F)cc1)c1cnn(C)c1 (single isomer, unassigned) [Example 702] | 4700 nM |  |  |  |
| 4000 nM | 2500 nM |  |  | C[C@@H]1CN(c2cc(=O)n(C)c3ccc(C#N)nc23)[C@@H](C)CN1C(c1ccc(F)cc1)c1cnn(C)c1 (single isomer, unassigned) [Example 703] | 1200 nM |  |  |  |
| 1300 nM | 12000 nM |  |  | C[C@@H]1CN(c2cc(=O)n(C)c3ccc(C#N)nc23)[C@@H](C)CN1C(c1ccc(F)cc1)c1ccon1 (single isomer, unassigned) [Example 706] | 2900 nM |  |  |  |
| 670 nM | 14000 nM |  |  | C[C@@H]1CN(c2cc(=O)n(C)c3ccc(C#N)nc23)[C@@H](C)CN1C(c1ccc(F)cc1)c1cocn1 (single isomer, unassigned) [Example 709] | 2100 nM |  |  |  |
| 69 nM | 3600 nM |  |  | C[C@@H]1CN(c2cc(=O)n(C)c3ccc(C#N)nc23)[C@@H](C)CN1C(c1ccc(F)cc1)c1nccs1 (single isomer, unassigned) [Example 711] |  | 1700 nM |  |  |
| 320 nM | 720 nM |  |  | C[C@@H]1CN(c2cc(=O)n(C)c3ccc(C#N)nc23)[C@@H](C)CN1C(c1ccc(F)cc1)c1nccs1 (single isomer, unassigned) [Example 712] | 2800 nM |  |  |  |
| 6600 nM | 20000 nM |  |  | C[C@@H]1CN(c2cc(=O)n(C)c3ccc(C#N)nc23)[C@@H](C)CN1C(c1ccc(F)cc1)c1cnsc1 (single isomer, unassigned) [Example 716] | 3100 nM |  |  |  |

More lines, now with the values behind:

| Compound | IC50 ([1]; liposome (LIPGLO) assay) | IC50 ([2]; liposome (LIPGLO) assay) | IC50 ([1]; DGKα liposome (LIPGLO) assay) | IC50 ([2]; DGKζ liposome (LIPGLO) assay) | EC50 [3, 4] | EC50 [3, 5] | EC50 ([3]; Homo sapiens, 24 h, anti-CD3 plus anti-CD28, 24 hours, 3 μM reference compound = 100% activation) | EC50 ([3]; anti-CD3 plus anti-CD28, 24 hours, 3 μM reference compound = 100% activation) |
| --- | --- | --- | --- | --- | --- | --- | --- | --- |
| COc1cccc(C(c2ccc(F)cc2)N2C[C@H](C)N(c3cc(=O)n(C)c4ccc(C#N)nc34)C[C@H]2C)c1 (single isomer, unassigned) [Example 660] | 17000 nM | 510 nM |  |  |  | 660 nM |  |  |
| C[C@@H]1CN(c2cc(=O)n(C)c3ccc(C#N)nc23)[C@@H](C)CN1C(c1ccc(F)cc1)c1ccc(N2CCOCC2)cc1 (single isomer, unassigned) [Example 662] | > 250000 nM | > 250000 nM |  |  |  | 20000 nM |  |  |
| C[C@@H]1CN(c2cc(=O)n(C)c3ccc(C#N)nc23)[C@@H](C)CN1C(c1ccc(F)cc1)c1ccc(N2CCOCC2)cc1 (single isomer, unassigned) [Example 663] | > 250000 nM | 24000 nM |  |  | 20000 nM |  |  |  |
| C[C@@H]1CN(c2cc(=O)n(C)c3ccc(C#N)nc23)[C@@H](C)CN1C(c1ccccc1)c1ccc(Cl)cc1 (single isomer, unassigned) [Example 670] | 1100 nM | 3600 nM |  |  | 2800 nM |  |  |  |
| C[C@@H]1CN(c2cc(=O)n(C)c3ccc(C#N)nc23)[C@@H](C)CN1C(c1ccccc1)c1ccc(Cl)cc1 (single isomer, unassigned) [Example 671] | 3300 nM | 3200 nM |  |  | 1200 nM |  |  |  |
| C[C@@H]1CN(c2cc(=O)n(C)c3ccc(C#N)nc23)[C@@H](C)CN1C(c1ccc(F)cc1)c1cccc(N2CCOCC2)c1 (single isomer, unassigned) [Example 672] | 92000 nM | 1700 nM |  |  | 9500 nM |  |  |  |
| C[C@@H]1CN(c2cc(=O)n(C)c3ccc(C#N)nc23)[C@@H](C)CN1C(c1ccc(F)cc1)c1cccc(N2CCOCC2)c1 (single isomer, unassigned) [Example 673] | 4700 nM | 2300 nM |  |  | 1300 nM |  |  |  |
| C[C@@H]1CN(c2cc(=O)n(C)c3ccc(C#N)nc23)[C@@H](C)CN1C(c1ccc(F)cc1)c1ccc(C(F)(F)F)cn1 (single isomer, unassigned) [Example 680] | 1200 nM | 2500 nM |  |  |  | 480 nM |  |  |
| C[C@@H]1CN(c2cc(=O)n(C)c3ccc(C#N)nc23)[C@@H](C)CN1C(c1ccc(F)cc1)c1ccc(C(F)(F)F)cn1 (single isomer, unassigned) [Example 681] | 100 nM | 350 nM |  |  | 270 nM |  |  |  |
| C[C@@H]1CN(c2cc(=O)n(C)c3ccc(C#N)nc23)[C@@H](C)CN1C(c1ccccn1)c1ccc(F)cc1F (single isomer, unassigned) [Example 683] | 470 nM | 23000 nM |  |  | 1500 nM |  |  |  |
| C[C@@H]1CN(c2cc(=O)n(C)c3ccc(C#N)nc23)[C@@H](C)CN1C(c1ccc(F)cn1)c1ccc(F)cc1F (single isomer, unassigned) [Example 684] | 6.9 nM | 490 nM |  |  | 350 nM |  |  |  |
| COc1ccc(C(c2cccc(F)c2)N2C[C@H](C)N(c3cc(=O)n(C)c4ccc(C#N)nc34)C[C@H]2C)nc1 (single isomer, unassigned) [Example 686] | 4300 nM | 3400 nM |  |  | 560 nM |  |  |  |
| C[C@@H]1CN(c2cc(=O)n(C)c3ccc(C#N)nc23)[C@@H](C)CN1C(c1ccc(F)cc1)c1cccc(S(C)(=O)=O)c1 (single isomer, unassigned) [Example 688] | 83000 nM | 24000 nM |  |  | 13000 nM |  |  |  |
| C[C@@H]1CN(c2cc(=O)n(C)c3ccc(C#N)nc23)[C@@H](C)CN1C(c1ccc(F)cc1)c1cccc(S(C)(=O)=O)c1 (single isomer, unassigned) [Example 689] | 7600 nM | 3000 nM |  |  | 1500 nM |  |  |  |
| C[C@@H]1CN(c2cc(=O)n(C)c3ccc(C#N)nc23)[C@@H](C)CN1C(c1ccc(F)cc1)c1c(F)cc(F)cc1F (single isomer, unassigned) [Example 692] | 810 nM | 2500 nM |  |  | 680 nM |  |  |  |
| C[C@@H]1CN(c2cc(=O)n(C)c3ccc(C#N)nc23)[C@@H](C)CN1C(c1ccc(F)cc1)c1c(F)cc(F)cc1F (single isomer, unassigned) [Example 693] | 2200 nM | 570 nM |  |  | 290 nM |  |  |  |
| C[C@@H]1CN(c2cc(=O)n(C)c3ccc(C#N)nc23)[C@@H](C)CN1C(c1ccc(F)cc1)c1cccc2ccnn12 (single isomer, unassigned) [Example 695] | 12000 nM | 280 nM |  |  |  | 4900 nM |  |  |
| C[C@@H]1CN(c2cc(=O)n(C)c3ccc(C#N)nc23)[C@@H](C)CN1C(c1ccc(F)cc1)c1cccc(C(F)F)n1 (single isomer, unassigned) [Example 696] | 240 nM | 240 nM |  |  | 420 nM |  |  |  |
| C[C@@H]1CN(c2cc(=O)n(C)c3ccc(C#N)nc23)[C@@H](C)CN1C(c1ccc(F)cc1)c1cccc(C(F)F)n1 (single isomer, unassigned) [Example 697] | 740 nM | 59 nM |  |  | 200 nM |  |  |  |
| C[C@@H]1CN(c2cc(=O)n(C)c3ccc(C#N)nc23)[C@@H](C)CN1C(c1ccc(F)cc1)c1cnn2ccccc12 (single isomer, unassigned) [Example 698] | 1700 nM | 400 nM |  |  |  | 1000 nM |  |  |
| C[C@@H]1CN(c2cc(=O)n(C)c3ccc(C#N)nc23)[C@@H](C)CN1C(c1ccc(F)cc1)c1cnn2ccccc12 (single isomer, unassigned) [Example 699] | 47000 nM | 2100 nM |  |  | 980 nM |  |  |  |
| C[C@@H]1CN(c2cc(=O)n(C)c3ccc(C#N)nc23)[C@@H](C)CN1C(c1ccc(F)cc1)c1nc(C2CC2)cs1 (single isomer, unassigned) [Example 700] | 380 nM | 95 nM |  |  | 120 nM |  |  |  |
| C[C@@H]1CN(c2cc(=O)n(C)c3ccc(C#N)nc23)[C@@H](C)CN1C(c1ccc(F)cc1)c1nc(C2CC2)cs1 (single isomer, unassigned) [Example 701] | 210 nM | 32 nM |  |  | 50 nM |  |  |  |
| C[C@@H]1CN(c2cc(=O)n(C)c3ccc(C#N)nc23)[C@@H](C)CN1C(c1ccc(F)cc1)c1csc(C2CC2)n1 (single isomer, unassigned) [Example 723] |  |  | 310 nM | 11 nM |  |  | 450 nM |  |
| C[C@@H]1CN(c2cc(=O)n(C)c3ccc(C#N)nc23)[C@@H](C)CN1C(c1ccc(F)cc1)c1csc(C2CC2)n1 (single isomer, unassigned) [Example 724] |  |  | 84 nM | 98 nM |  |  |  | 260 nM |
